Some test systems named below: 786-0; ACHN; DMS-114; EKVX; HCT-116; HOP-62; LOX IMVI; M14; MOLT-4; Malme-3M; NCI-H460; OVCAR-3; OVCAR-8; SN12C; SNB-75; SW-620; UACC-257; UACC-62.
Assay in all cases: NCI anticancer screen, dose series, 48 h

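A five-concentration, 48-hour dose response in 96-well plates underlies each endpoint, interpolated linearly between surrounding concentrations. The concentration for 50% growth inhibition is given as GI50.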 The source made the active and inactive calls. Rule as the data show it: active = GI50 up to about 1.1 µM and inactive = higher. Bounds are passed on as bounds.

On to `CCOC(=O)CCC(=O)C1c2cccc(O)c2C(=O)c2c(O)cc(C)cc21` (stereo unspecified), for which the GI50 in the experiment with 786-0 is 1.32 µM (inactive); in the experiment with ACHN, 0.993 µM (active); with DMS-114 it was 0.296 µM (active); in the experiment on EKVX, 1.82 µM (inactive); in the experiment on HCT-116, 0.805 µM (active); with HOP-62, 0.656 µM (active). Also, the GI50 is 0.729 µM (active) with LOX IMVI; 1.4 µM (inactive) in the experiment with M14; 2.1 µM (inactive) in the experiment on MOLT-4; 1.34 µM (inactive) in the experiment on Malme-3M; 0.342 µM (active) with NCI-H460; 0.533 µM (active) in the experiment on OVCAR-3. In addition, the GI50 in the experiment with OVCAR-8 is 0.764 µM (active); in the experiment with SN12C, 1.79 µM (inactive); in the experiment with SNB-75, 0.578 µM (active); in the experiment with SW-620, 0.948 µM (active); with UACC-257, 1.41 µM (inactive); with UACC-62, 0.434 µM (active).

Consider `CC1COC(C)(C)P(=O)(c2ccccc2)C1` (stereo unspecified), for which the GI50 with 786-0, with ACHN, with DMS-114, with EKVX, in the experiment on HCT-116 and in the experiment on HOP-62 was > 100 µM (inactive) throughout. Besides, the GI50 in the experiment with LOX IMVI, in the experiment with M14, in the experiment on MOLT-4, in the experiment on Malme-3M, in the experiment with NCI-H460 and in the experiment on OVCAR-3 was > 100 µM (inactive) in each case. Also, the GI50 is > 100 µM (inactive) with OVCAR-8; > 100 µM (inactive) in the experiment with SN12C; 49.4 µM (inactive) in the experiment with SNB-75; > 100 µM (inactive) in the experiment on SW-620; > 100 µM (inactive) in the experiment with UACC-257; > 100 µM (inactive) in the experiment with UACC-62.

In the case of `COc1ccc(CCNCc2cccc(OC)c2OC)cc1OC`, the GI50 with 786-0, in the experiment with ACHN, in the experiment with DMS-114, in the experiment with EKVX, in the experiment on HOP-62 and in the experiment on LOX IMVI was > 100 µM (inactive) each time. The GI50 in the experiment on M14, with MOLT-4, in the experiment with Malme-3M, in the experiment with NCI-H460, with OVCAR-3 and in the experiment with OVCAR-8 was > 100 µM (inactive) each time. The GI50 with SN12C, in the experiment on SNB-75, in the experiment on SW-620, in the experiment with UACC-257 and with UACC-62 was > 100 µM (inactive) in each case.

As for `CC(CC[C@@H](C)C1CCC2[C@@H]3CC(O)C4CC(O)[C@@H](O)C[C@]4(C)C3CC[C@@]21C)C(C)(C)C` (stereo partly specified), the GI50 with 786-0, with ACHN, in the experiment on DMS-114, in the experiment on EKVX, in the experiment on HCT-116 and in the experiment on HOP-62 was > 100 µM (inactive) in each case. Besides, the GI50 in the experiment with LOX IMVI, in the experiment with M14, in the experiment on MOLT-4, in the experiment on Malme-3M, in the experiment on NCI-H460 and in the experiment with OVCAR-3 was > 100 µM (inactive) in each case. Further, the GI50 in the experiment with OVCAR-8, in the experiment on SN12C, in the experiment with SNB-75, in the experiment on SW-620, in the experiment on UACC-257 and in the experiment on UACC-62 was > 100 µM (inactive) in each case.

The values above are taken from ChEMBL document CHEMBL1201862, “PubChem BioAssay data set” (2004).
